Measurements as given in ChEMBL document CHEMBL4396891, “Recent update on anti-dengue drug discovery” (Eur J Med Chem, 2019).
In brackets after ≈: the same amount, converted by molar mass.

Tests used:
dengue virus type 2 [1] = test: Antiviral activity against DENV2; type: functional, organism-based
dengue virus type 2 [2] = test: Antiviral activity against DENV2 infected in BHK-21 cells by MTTR assay; type: functional, organism-based
Dengue virus = test: Antiviral activity against dengue virus; type: functional, organism-based
Genome polyprotein [3] = molecular target: T1, Genome polyprotein (dengue virus type 2, UniProt P29990); test: Inhibition of His-tagged DENV2 NS2B-NS3 serine protease expressed in Escherichia coli BL21 using Boc-Gly-Arg-Arg-7-amino-4-methylcoumarin as substrate measured after 10 mins by fluorometric assay
dengue virus type 2 [4] = test: Antiviral activity against DENV2 ICC-265 infected in human Huh7.5 cells after 72 hrs; type: functional, organism-based; conditions: ICC-265, Huh7.5, 72 h
dengue virus type 4 [5] = test: Antiviral activity against DENV4 TVP360 infected in human Huh7.5 cells after 72 hrs; type: functional, organism-based; conditions: TVP360, Huh7.5, 72 h
dengue virus type 3 [6] = test: Antiviral activity against DENV3 97 infected in human Huh7.5 cells after 72 hrs; type: functional, organism-based; conditions: Dengue virus, 97, Huh7.5, 72 h
dengue virus type 1 [7] = test: Antiviral activity against DENV1 FGA/89 infected in human Huh7.5 cells after 72 hrs; type: functional, organism-based; conditions: FGA/89, Huh7.5, 72 h
dengue virus type 2 [8] = test: Antiviral activity against DENV2 New Guinea C infected in HEK293 cells assessed as reduction in viral infection after 48 hrs by focus forming assay; type: functional, organism-based; conditions: HEK293, 48 h
dengue virus type 2 [9] = test: Antiviral activity against DENV2 infected in BHK-21 cells assessed as viral titer by plaque assay; type: functional, organism-based
Genome polyprotein [10] = molecular target: T1, Genome polyprotein; test: Inhibition of DENV2 NS2B-NS3 serine protease using Bz-Nle-Lys-Arg-Arg-AMC as substrate after 15 mins by fluorescence assay
Nonstructural protein 5 = Nonstructural protein 5 (Dengue virus, UniProt V5TFZ2); test: Inhibition of dengue virus NS5 RNA dependent RNA polymerase
dengue virus type 4 [11] = test: Antiviral activity against DENV4; type: functional, organism-based
dengue virus type 1 [12] = test: Antiviral activity against DENV1; type: functional, organism-based
dengue virus type 3 [13] = test: Antiviral activity against DENV3; type: functional, organism-based
dengue virus type 2 [14] = test: Antiviral activity against DENV2 infected in BHK cells assessed as reduction in viral yield after 24 ro 48 hrs by luciferase reporter gene assay; type: functional, organism-based
[15] = molecular target: Genome polyprotein (dengue virus type 2) (UniProt P29990); test: Inhibition of DENV2 NS2B-NS3 serine protease
dengue virus type 2 [16] = test: Antiviral activity against DENV2 infected in human Huh-7 cells; type: functional, organism-based
dengue virus type 2 [17] = test: Antiviral activity against DENV2 infected in BHK-21 cells after 72 hrs by plaque-forming assay; type: functional, organism-based; conditions: BHK-21, 72 h
Genome polyprotein [18] = molecular target: T1, Genome polyprotein; test: Inhibition of DENV2 NS2B-NS3 serine protease expressed using Benzoyl-Nle-Lys-Arg-Arg-AMC as substrate measured preincubated for 3 mins followed by substrate addition by fluorescence assay
dengue virus type 2 [19] = test: Antiviral activity against DENV2 infected in BHK-21 cells assessed as viral replication; type: functional, organism-based
dengue virus type 2 [20] = test: Antiviral activity against DENV2 infected in African green monkey Vero cells assessed as reduction in viral replication at 10 uM after 4 days by qRT-PCR analysis relative to control; type: functional; conditions: 96 h
dengue virus type 1 [21] = test: Antiviral activity against DENV1 infected in African green monkey Vero cells assessed as reduction in viral replication at 10 uM after 4 days by qRT-PCR analysis relative to control; type: functional; conditions: 96 h
dengue virus type 4 [22] = test: Antiviral activity against DENV4 infected in African green monkey Vero cells assessed as reduction in viral replication at 10 uM after 4 days by qRT-PCR analysis relative to control; type: functional; conditions: 96 h
dengue virus type 3 [23] = test: Antiviral activity against DENV3 infected in African green monkey Vero cells assessed as reduction in viral replication at 10 uM after 4 days by qRT-PCR analysis relative to control; type: functional; conditions: 96 h
dengue virus type 2 [24] = test: Antiviral activity against DENV2 infected in BHK-21 cells assessed as reduction in viral production; type: functional, organism-based

Nonstructural protein 5, sequence (V5TFZ2 whole entry): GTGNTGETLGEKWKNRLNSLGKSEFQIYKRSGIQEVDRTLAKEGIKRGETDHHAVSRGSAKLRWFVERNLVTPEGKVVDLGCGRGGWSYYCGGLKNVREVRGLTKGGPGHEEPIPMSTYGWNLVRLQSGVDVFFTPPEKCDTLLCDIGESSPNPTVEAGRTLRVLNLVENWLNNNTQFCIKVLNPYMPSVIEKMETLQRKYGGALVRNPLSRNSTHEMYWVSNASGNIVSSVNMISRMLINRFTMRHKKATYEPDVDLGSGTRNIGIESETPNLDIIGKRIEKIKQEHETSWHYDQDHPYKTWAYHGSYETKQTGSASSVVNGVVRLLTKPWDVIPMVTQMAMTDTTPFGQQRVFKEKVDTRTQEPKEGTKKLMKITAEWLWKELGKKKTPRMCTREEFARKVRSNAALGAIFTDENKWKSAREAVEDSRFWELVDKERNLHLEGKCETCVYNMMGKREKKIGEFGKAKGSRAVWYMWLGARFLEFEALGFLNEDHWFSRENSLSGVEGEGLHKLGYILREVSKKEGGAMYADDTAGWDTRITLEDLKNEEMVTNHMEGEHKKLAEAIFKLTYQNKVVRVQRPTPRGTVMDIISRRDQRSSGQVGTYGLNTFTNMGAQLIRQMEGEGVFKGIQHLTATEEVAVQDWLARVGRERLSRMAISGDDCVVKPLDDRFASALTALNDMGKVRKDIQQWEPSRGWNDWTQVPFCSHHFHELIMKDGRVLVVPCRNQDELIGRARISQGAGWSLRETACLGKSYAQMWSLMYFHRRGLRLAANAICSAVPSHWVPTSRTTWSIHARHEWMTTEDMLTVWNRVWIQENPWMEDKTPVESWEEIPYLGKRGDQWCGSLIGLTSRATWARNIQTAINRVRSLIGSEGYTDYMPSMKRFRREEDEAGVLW

## CC(C)CC(=O)c1c(O)c2c(c3c(-c4ccccc4)cc(=O)oc13)OC(C)(C)C=C2 [ISOMAMMEIGIN]
Dengue virus type 2 [1]
  EC50: 2.6 to 10.2 µM

## C/C=C(\C)C(=O)O[C@@H]1CC[C@]2(C)[C@H]3CC[C@@]4(C)[C@@H]([C@@H]5C[C@H]([C@@H]6OC6(C)C)O[C@H]5O)CC[C@]4(C)C3=CC[C@H]2C1(C)C
Dengue virus type 2 [2]
  EC50: 3 µM

## CC[C@](C)(O)CCCCC[C@H]1C=CC(=O)O1
Dengue virus
  EC50: 11.2 to 21.2 µM

## O=C(O)c1cc2sc(NC(=O)c3ccccc3Sc3ccc(C(F)(F)F)cc3)nc2cc1O
Genome polyprotein [3]
  IC50: 66 µM

## CCCCCCCCCCCCCCNCCNC(=O)C[C@]1(O)C[C@@H](O)[C@@H](O)[C@H](O)C1
Dengue virus type 2 [4]
  IC50: 6.5 to 10.8 µM
Dengue virus type 4 [5]
  IC50: 6.5 to 10.8 µM
Dengue virus type 3 [6]
  IC50: 6.5 to 10.8 µM
Dengue virus type 1 [7]
  IC50: 6.5 to 10.8 µM

## C=C1CC/C=C(\C)CC[C@@H]2[C@@H]1CC2(C)C [BETA-CARYOPHYLLENE]
Dengue virus type 2 [1]
  IC50: 22 µM

## Nc1c(C(=O)Nc2nc(-c3ccccc3)cs2)sc2nc3c(cc12)CN(c1ccccc1)CC3
Dengue virus type 2 [8]
  IC50: 0.025 µM

## CCN(CC)CCNC(=O)c1c(C)[nH]c(/C=C2\C(=O)Nc3ccc(F)cc32)c1C [SUNITINIB]
Dengue virus type 2 [9]
  EC50: 1.96 µM

## O=C1c2ccccc2C(=O)N1c1ccc(S(=O)(=O)Nc2cccc3ccccc23)cc1
Genome polyprotein [10]
  IC50: 122 µM

## C[C@@H]1O[C@@H](Oc2c(-c3ccc(O)c(O)c3)oc3cc(O)cc(O)c3c2=O)[C@H](O)[C@H](O)[C@H]1O [QUERCITRIN]
Nonstructural protein 5
  IC50: 1.7 to 2.1 µM

## Oc1cccc(Nc2nc(NCc3ccc(-c4ccccc4)cc3)nc3nc[nH]c23)c1
Dengue virus type 4 [11]
  EC50: 1.38 to 2.19 µM
Dengue virus type 1 [12]
  EC50: 1.38 to 2.19 µM
Dengue virus type 2 [1]
  EC50: 2.8 µM
Dengue virus type 3 [13]
  EC50: 1.38 to 2.19 µM

## CCN(CC)CCCC(C)Nc1c2ccc(Cl)cc2nc2ccc(OC)cc12 (stereo unspecified) [QUINACRINE]
Dengue virus type 2 [14]
  EC50: 5.3 µM

## CCCCC1C(C(=O)N(C)OC)C(c2ccccc2)CCN1C(=O)OC(C)(C)C (stereo unspecified)
Dengue virus type 2 [1]
  EC50: 2.4 µM
[15]
  INH: 257 µM

## CC1(C)O[C@H]1[C@H]1C[C@@H]([C@H]2CC[C@]3(C)C4=CC[C@H]5C(C)(C)C(=O)CC[C@]5(C)[C@H]4CC[C@@]23C)[C@H](O)O1
Dengue virus type 2 [2]
  EC50: 12 µM

## CCc1ccc(NS(=O)(=O)c2ccc(N3C(=O)c4ccccc4C3=O)cc2)cc1
Genome polyprotein [10]
  IC50: 48.2 µM

## CCCCC1C(C(=O)CC)C(c2ccccc2)CCN1C(=O)OC(C)(C)C (stereo unspecified)
Dengue virus type 2 [1]
  EC50: 3.2 µM
[15]
  INH: 214 µM

## CCCCCCCCCCCCNCCNC(=O)C[C@@]1(O)C[C@@H](O)[C@@H]2OC(C)(C)O[C@@H]2C1
Dengue virus type 2 [4]
  IC50: 6.9 to 10.4 µM
Dengue virus type 4 [5]
  IC50: 6.9 to 10.4 µM
Dengue virus type 3 [6]
  IC50: 6.9 to 10.4 µM
Dengue virus type 1 [7]
  IC50: 6.9 to 10.4 µM

## O=c1c2cc(O)c(O)cc2oc2cc(O)c([C@@H]3O[C@H](CO)[C@@H](O)[C@H](O)[C@H]3O/C=C/c3ccccc3)c(O)c12
Dengue virus type 2 [16]
  EC50: 3.5 µg/mL (≈ 6.67 µM)

## C#Cc1cccc(Nc2ncnc3cc(OCCOC)c(OCCOC)cc23)c1 [ERLOTINIB]
Dengue virus type 2 [9]
  EC50: 4.07 µM

## CC[C@@H](c1cc(OC)c(OC)cc1OC)[C@H](C)[C@@H](/C(C)=C/c1cc(OC)c(OC)cc1OC)c1cc(OC)c(OC)cc1OC
Dengue virus
  EC50: 3.9 µM

## CC(=O)O[C@H]1[C@H]2c3cc4c(cc3CN3CCC(=C[C@@H]1O)[C@H]23)OCO4
Dengue virus
  EC50: 0.4 to 1.8 µM

## O[C@@H](c1cc(C(F)(F)F)nc2c(C(F)(F)F)cccc12)[C@H]1CCCCN1 [(S,R)-MEFLOQUINE]
Dengue virus type 2 [14]
  EC50: 3.22 µM

## CCCCCCCCCCCCCCCC[N+](CC)(CO)CO
Dengue virus type 2 [17]
  EC50: 1.03 µM

## Cc1ccc(C2=NC(=O)/C(=C/c3cc(O)c(O)c(Br)c3)S2)cc1
Genome polyprotein [18]
  IC50: 2.94 to 4.06 µM
Dengue virus type 2 [19]
  EC50: 6.9 µM

## N#C/C(=C\c1ccc(-c2ccc(C(=O)O)cc2)s1)c1nc2cc(Cl)ccc2[nH]1
Dengue virus type 2 [20]
  inhibition at 10 µM: 50 to 82%
Dengue virus type 1 [21]
  inhibition at 10 µM: 50 to 82%
Dengue virus type 4 [22]
  inhibition at 10 µM: 50 to 82%
Dengue virus type 3 [23]
  inhibition at 10 µM: 50 to 82%

## Cc1cc(N2CCN(C)CC2)ccc1NC(=O)c1c2c(nc3ccccc13)CCN(Cc1ccccc1)C2
Dengue virus type 2 [24]
  EC50: 5 µM
